Values quoted from earlier work as cited in patent US20230181690A1, “METHODS FOR TREATING ANEMIA USING AN ACTRIIB LIGAND TRAP AND FEDRATINIB” (Celgene Corporation, priority 2020, published 2023).
Substitutions are numbered along the chain they refer to.

What was measured:
[1] = tested on: intermediate-2 or high-risk MF; details: previously untreated patients with intermediate-2 or high-risk MF
[2] = tested on: JAK2V617F-driven myeloproliferative disease; details: mouse, in vivo
[3] = tested on: cell models expressing mutationally active JAK2 or FLT3
[4] = tested on: MPN-associated myelofibrosis
[5] = tested on: cell models expressing mutationally active JAK2 or FLT3; remark: listed apart in the source
GDF-11 = target: T1, GDF-11 (Homo sapiens, UniProt O95390)
T1 sequence (O95390 299-407): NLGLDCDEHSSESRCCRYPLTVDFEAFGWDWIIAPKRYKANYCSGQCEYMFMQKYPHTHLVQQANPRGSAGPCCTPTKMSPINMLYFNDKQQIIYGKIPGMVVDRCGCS

In the case of `Cc1cnc(Nc2ccc(OCCN3CCCC3)cc2)nc1Nc1cccc(S(=O)(=O)NC(C)(C)C)c1` [fedratinib, N-tert-butyl-3-[(5-methyl-2-{4-[2-(pyrrolidin-1-yl)ethoxy]anilino}pyrimidin-4-yl)amino]benzenesulfonamide], the clinical efficacy [1] is listed as “demonstrated clinical efficacy”, the disease-associated symptoms [2] is listed as “improved disease-associated symptoms, including reduction of white blood cells, hematocrit, splenomegaly, and fibrosis” and the “phosphorylation of STAT3/5” value [2] is listed as “blocked phosphorylation of STAT3/5”. For the same molecule, the cell proliferation [3] was “inhibited cell proliferation”, the “potency for JAK2 over family members JAK1, JAK3 and TYK2” value (Janus Kinase 2 (JAK2)) was “higher potency for JAK2 over family members JAK1, JAK3 and tyrosine kinase 2 (TYK2)” and the “thrombocytopenia and anemia associated with therapy” value ([4]; patients) was “can be associated with moderate to severe thrombocytopenia and anemia”. For the same molecule, the “phosphorylation of STAT3/5 proteins” value [5] was “reduced phosphorylation”.

For `N#CC[C@H](C1CCCC1)n1cc(-c2ncnc3[nH]ccc23)cn1` [ruxolitinib], the exacerbation of anemia ([4]; patients with MPN-associated myelofibrosis) is listed as “can exacerbate the anemia”.

B1: ActRIIB(20-119)-Fc: ActRIIB-Fc fusion protein containing amino acids 20-119 of SEQ ID NO:14 (SEQ ID NO:18) (protein)
chain: GRGEAETRECIYYNANWELERTNQSGLERCEGEQDKRLHCYASWRNSSGTIELVKKGCWLDDFNCYDRQECVATEENPQVYFCCCEGNFCNERFTHLPEA
modifications: human ActRIIB soluble (extracellular), processed polypeptide sequence with the C-terminal 15 aa deleted (aa 20-119 of SEQ ID NO14)
For B1, the “binding to activin relative to ActRIIB(20-134)-Fc” value (activin) is listed as “reduced binding” and the “binding to GDF-11 relative to ActRIIB(20-134)-Fc” value (GDF-11) is listed as “reduced binding”.

B2: A64: Fc fusion protein having the ActRIIB extracellular sequence with an alanine at position 64 of SEQ ID NO:2 (protein)
chain: SGRGEAETRECIYYNANWELERTNQSGLERCEGEQDKRLHCYASWANSSGTIELVKKGCWLDDFNCYDRQECVATEENPQVYFCCCEGNFCNERFTHLPEAGGPEVTYEPPPTAPTGGGTHTCPPCPAPELLGGPSVFLFPPKPKDTLMISRTPEVTCVVVDVSHEDPEVKFNWYVDGVEVHNAKTKPREEQYNSTYRVVSVLTVLHQDWLNGKEYKCKVSNKALPVPIEKTISKAKGQPREPQVYTLPPSREEMTKNQVSLTCLVKGFYPSDIAVEWESNGQPENNYKTTPPVLDSDGSFFLYSKLTVDKSRWQQGNVFSCSVMHEALHNHYTQKSLSLSPGK
modifications: fusion protein comprising a soluble extracellular domain of ActRIIB (A64; SEQ ID NO 3) fused to an Fc domain
In the case of B2, the affinity for activin (activin) is given as “relatively low affinity” and the “affinity for GDF-11” value (GDF-11) is given as “relatively low affinity”.

B3: R64: Fc fusion protein with an arginine at position 64 of the ActRIIB precursor amino acid sequence (protein)
chain: B2 chain with A46R
modifications: fusion protein comprising a soluble extracellular domain of ActRIIB (R64; SEQ ID NO15) fused to an Fc domain
For B3, the affinity for activin (activin) is given as “low nanomolar to high picomolar range” and the “affinity for GDF-11” value (GDF-11) is given as “low nanomolar to high picomolar range”.
